From ChEMBL document CHEMBL1148279, “Effects of bisphosphonates on the growth of Entamoeba histolytica and Plasmodium species in vitro and in vivo” (J Med Chem, 2004) come the findings set out here.

Some results are limits rather than exact numbers.

One data set can be described thus: in vitro. The conditions noted are these: human, KB cells (nasopharyngeal carcinoma).
The nature of data set [1]: Therapeutic index was expressed as ratio of LD50 for KB cell line to IC50 against Plasmodium falciparum. Format: cell-based. The conditions noted are these: human, KB cells; read-out: TI.
Data set [2] has as its system Mus musculus. The data set is described as follows: Mean reduction in parasitaemia of Plasmodium berghei ANKA suppressive test in mice (Mus musculus) (in vivo) at 25 mg/kg scheduled for 4 days. It is filed as functional.
Data set [3] is described as follows: Inhibitory activity against Entamoeba histolytica pyrophosphate-dependent phosphofructokinase (PFK) (Range is 900-1000). Format: functional.
For another data set, the system named is Entamoeba histolytica. The data set is described as follows: In vitro growth inhibition against Entamoeba histolytica. It is filed as functional, organism-based.
Data set [4] has as its system Mus musculus. The data set is described as follows: Mean reduction in parasitaemia of Plasmodium berghei ANKA suppressive test in mice (Mus musculus) (in vivo) at 10 mg/kg scheduled for 4 days. Format: functional.
The test system of data set [5] is Plasmodium falciparum. The data set is described as follows: Inhibitory activity against Plasmodium falciparum 3D7.
In data set [6] the test system is Plasmodium falciparum. The data set is described as follows: microbe, parasite or virus in culture.
Description: In vitro growth inhibition against Plasmodium falciparum
For data set [7], the system named is Plasmodium falciparum. The data set is described as follows: Inhibitory activity against Plasmodium falciparum W2.
In data set [8] the test system is Plasmodium falciparum. The data set is described as follows: Inhibitory activity against Plasmodium falciparum Ghana.
Data set [9] is described as follows: Inhibitory activity against Entamoeba histolytica pyrophosphate-dependent phosphofructokinase (PFK) (Range is 2500-3000). It is filed as functional.
The test system of data set [10] is Mus musculus. The data set is described as follows: Mean reduction in parasitaemia of Plasmodium berghei ANKA suppressive test in mice (Mus musculus) (in vivo) at 10 mg/kg scheduled for 2 days. Format: functional.
Data set [11] can be described thus: Inhibitory activity against Entamoeba histolytica pyrophosphate-dependent phosphofructokinase (PFK). Format: functional.
Data set [12] in a line: Inhibitory activity against Entamoeba histolytica pyrophosphate-dependent phosphofructokinase (PFK) (Range is 600-1200). Format: functional.

Description for in vitro: Toxicity evaluated against human nasopharyngeal carcinoma KB cell line

The term CC50 denotes the concentration giving 50% cytotoxicity. Read a high CC50 as lower toxicity to the cells. For orientation: IC50 means the concentration that gives 50% inhibition. The low end stands for greater potency, the high end for weaker potency. In the case of `O=P(O)(O)C(O)(Cc1ccccc1)P(=O)(O)O`, in “in vitro”, the CC50 is over 931 µM. Further, the selectivity ratio in data set [1] is over 121. The molecule further registered a Reduction in the data set with Mus musculus [2] of 64%. In addition, the figures for the IC50 (in data set [3]; in the data set on Entamoeba histolytica) were 1000 µM and over 200 µM, respectively.

Consider `CCCCCCC(O)(P(=O)(O)O)P(=O)(O)O`, for which the Reduction in the data set on Mus musculus [4] is 48%. Moreover, the 50% inhibitory concentration (IC50) with Plasmodium falciparum [5] worked out at 4.34 µM; with Plasmodium falciparum [6] it was 4.34 µM; with Plasmodium falciparum [7], 0.5 µM; with Plasmodium falciparum [8], 0.5 µM; in the data set with Entamoeba histolytica it was 29.5 µM; in data set [9], 3000 µM. Also, in “in vitro”, the CC50 stood at 109 µM.

In the data set on Mus musculus [4], `CCN(CC)CCCC(C)Nc1ccnc2cc(Cl)ccc12` (centres undefined) [CHLOROQUINE] registered a Reduction of 100%.

`NCCC(O)(P(=O)(O)O)P(=O)(O)O` [PAMIDRONIC ACID] showed a Reduction in the data set on Mus musculus [2] of 5%. In the data set on Entamoeba histolytica, the IC50 is over 200 µM.

`CCCCCCCCCC(O)(P(=O)(O)O)P(=O)(O)O` gave a Reduction in the data set with Mus musculus [10] of 75%. The IC50 in the data set on Plasmodium falciparum [5] was 0.83 µM; in the data set on Plasmodium falciparum [6], 0.83 µM; with Plasmodium falciparum [7] it was 1 µM; in the data set on Plasmodium falciparum [8], 2 µM; in data set [11], 70 µM; with Entamoeba histolytica it was 13.3 µM. The molecule also had a CC50 in “in vitro” of over 775 µM.

With `CCCCCC(O)(P(=O)(O)O)P(=O)(O)O`, the IC50 in data set [12] stood at 1200 µM; in the data set on Plasmodium falciparum [6] it was 5.53 µM; in the data set with Entamoeba histolytica it was 157 µM. In “in vitro”, this molecule registered a CC50 of over 993 µM. Also, in the data set with Mus musculus [2], the Reduction was 80%.
